Test results as given in ChEMBL document CHEMBL4000146, “Synthesis, antiplasmodial activity and mechanistic studies of pyrimidine-5-carbonitrile and quinoline hybrids” (Eur J Med Chem, 2015).

Experiments:
[1] = Cytotoxicity against MDCK cells assessed as alteration of normal cell morphology by microscopic analysis; format: cell-based, Canis lupus familiaris; settings: dog
[2] = Selectivity index, ratio of IC50 for human HeLa cells to IC50 for chloroquine-resistant asexual intraerythrocytic stage of Plasmodium falciparum Dd2; format: toxicity, cell-based; settings: read-out: Ratio IC50
[3] = system: L1210; experiment: Cytotoxicity against mouse L1210 cells assessed as inhibition of cell proliferation by Coulter counter analysis; format: cell-based
[4] = system: Plasmodium falciparum; experiment: microbe, parasite or virus in culture; settings: Dd2
[5] = system: Vesicular stomatitis virus; experiment: microbe, parasite or virus in culture; settings: HEL
[6] = system: CCRF-CEM; experiment: Cytotoxicity against human CEM cells assessed as inhibition of cell proliferation by Coulter counter analysis; format: cell-based
[7] = system: Plasmodium falciparum; experiment: microbe, parasite or virus in culture; settings: NF54
[8] = system: Coxsackievirus; format: functional; settings: B4, Vero
[9] = system: Punta Toro virus; format: functional; settings: Vero
[10] = system: Vaccinia virus; experiment: microbe, parasite or virus in culture; settings: Orthopoxvirus vaccinia, HEL
[11] = system: Sindbis virus; format: functional; settings: Vero
[12] = system: Human respirovirus 3; format: functional; settings: Human respirovirus 3, Vero
[13] = Cytotoxicity against human HEL cells assessed as inhibition of cell viability by colorimetric formazan-based MTS assay
[14] = system: Human alphaherpesvirus 1; format: functional, cell-based; settings: Human alphaherpesvirus 1, KOS, HEL
[15] = system: Human alphaherpesvirus 2; format: functional, cell-based; settings: Human alphaherpesvirus 2, G, HEL
[16] = system: Human alphaherpesvirus 3; format: functional, cell-based; settings: Human alphaherpesvirus 3, 07-1, HEL
[17] = system: HeLa; experiment: Cytotoxicity against human HeLa cells assessed as inhibition of cell proliferation by Coulter counter analysis; format: cell-based
[18] = system: Vesicular stomatitis virus; experiment: microbe, parasite or virus in culture; settings: HeLa
[19] = Cytotoxicity against human HeLa cells assessed as alteration of normal cell morphology by microscopic analysis; format: cell-based
[20] = Cytotoxicity against MDCK cells assessed as inhibition of cell viability by colorimetric formazan-based MTS assay; design: species or system Canis lupus familiaris; settings: dog
[21] = Cytotoxicity against african green monkey Vero cells assessed as alteration of normal cell morphology by microscopic analysis; format: cell-based; settings: chlorocebus sabaeus
[22] = Cytotoxicity against human HEL cells assessed as alteration of normal cell morphology by microscopic analysis; format: cell-based
[23] = system: Coxsackievirus; format: functional, cell-based; settings: B4, HeLa
[24] = system: Human alphaherpesvirus 3; format: functional, cell-based; settings: Human alphaherpesvirus 3, strain Oka vaccine, HEL
[25] = Selectivity index, ratio of IC50 for human HeLa cells to IC50 for chloroquine-sensitive asexual intraerythrocytic stage of Plasmodium falciparum NF54; format: toxicity, cell-based; settings: read-out: Ratio IC50
[26] = system: Influenza A virus; experiment: microbe, parasite or virus in culture; settings: H3N2, MDCK
[27] = system: Plasmodium falciparum; experiment: Resistance index, ratio of IC50 for chloroquine-resistant asexual intraerythrocytic stage of Plasmodium falciparum Dd2 to IC50 for chloroquine-sensitive asexual intraerythrocytic stage of Plasmodium falciparum NF54; format: functional
[28] = system: Influenza A virus; experiment: microbe, parasite or virus in culture; settings: H1N1, MDCK
[29] = system: Influenza B virus; experiment: microbe, parasite or virus in culture; settings: MDCK
[30] = system: Mammalian orthoreovirus 1; format: functional; settings: Mammalian orthoreovirus 1, Vero
[31] = system: unidentified adenovirus; format: functional, cell-based; settings: HEL
[32] = system: Human alphaherpesvirus 1; format: functional, cell-based; settings: Human alphaherpesvirus 1, KOS, HEL; remark: listed apart in the source
[33] = system: Human betaherpesvirus 5; format: functional, cell-based; settings: Human betaherpesvirus 5, Davis, HEL
[34] = system: Human betaherpesvirus 5; format: functional, cell-based; settings: Human betaherpesvirus 5, AD169, HEL
[35] = system: Human orthopneumovirus; format: functional, cell-based; settings: human respiratory syncytial virus, HeLa

**Q.** Which results are given for `COc1ccc(-c2nc(SC)nc(NCCCCNc3ccnc4cc(Cl)ccc34)c2C#N)cc1OC`?
**A.** MCC [1]: 20 µM; selectivity ratio [2]: 15.5; IC50 [3]: 18 µM; IC50 [4]: 1.28 µM; EC50 [5]: > 100 µM; IC50 [6]: 16 µM; IC50 [7]: 0.193 µM; EC50 [8]: > 100 µM; EC50 [9]: > 100 µM; EC50 [10]: > 100 µM; EC50 [11]: > 100 µM; EC50 [12]: > 100 µM; CC50 [13]: 84.1 µM; EC50 [14]: > 100 µM; EC50 [15]: > 100 µM; EC50 [16]: > 20 µM; IC50 [17]: 20 µM; EC50 [18]: > 20 µM; MCC [19]: 100 µM; CC50 [20]: 10 µM; MCC [21]: > 100 µM; MCC [22]: ≥ 100 µM; EC50 [23]: > 20 µM; EC50 [24]: > 20 µM; selectivity ratio [25]: 104; EC50 [26]: > 4 µM; Ratio IC50 [27]: 6.65; EC50 [28]: > 4 µM; EC50 [29]: > 4 µM; EC50 [30]: > 100 µM; EC50 [31]: > 20 µM; EC50 [32]: > 100 µM; EC50 [33]: > 20 µM; EC50 [34]: > 20 µM; EC50 [35]: > 20 µM

**Q.** With `CSc1nc(NCCCCNc2ccnc3cc(Cl)ccc23)c(C#N)c(-c2ccccc2)n1` as the compound, how does the MCC [1] read?
**A.** 20 µM

**Q.** And the selectivity ratio [2]?
**A.** 28.7

**Q.** And the IC50 [3]?
**A.** 4.4 µM

**Q.** What about the IC50 [4] of the same compound?
**A.** 0.295 µM

**Q.** And the EC50 [5]?
**A.** > 0.8 µM

**Q.** What about the IC50 [6] of the same compound?
**A.** 5.2 µM

**Q.** And the IC50 [7]?
**A.** 0.109 µM

**Q.** What about the EC50 [8] of the same compound?
**A.** > 4 µM

**Q.** And the EC50 [9]?
**A.** > 4 µM

**Q.** What about the EC50 [10] of the same compound?
**A.** > 0.8 µM

**Q.** What about the EC50 [11] of the same compound?
**A.** > 4 µM

**Q.** And the EC50 [12]?
**A.** > 4 µM

**Q.** And the CC50 [13]?
**A.** 8.2 µM

**Q.** And the EC50 [14]?
**A.** > 0.8 µM

**Q.** And the EC50 [15]?
**A.** > 0.8 µM

**Q.** What about the EC50 [16] of the same compound?
**A.** > 4 µM

**Q.** What about the IC50 [17] of the same compound?
**A.** 8.5 µM

**Q.** And the EC50 [18]?
**A.** > 20 µM

**Q.** And the MCC [19]?
**A.** 100 µM

**Q.** And the CC50 [20]?
**A.** 10.7 µM

**Q.** What about the MCC [21] of the same compound?
**A.** 20 µM

**Q.** What about the MCC [22] of the same compound?
**A.** 4 to 20 µM

**Q.** What about the EC50 [23] of the same compound?
**A.** > 20 µM

**Q.** What about the EC50 [24] of the same compound?
**A.** > 4 µM

**Q.** What about the selectivity ratio [25] of the same compound?
**A.** 78.3

**Q.** What about the EC50 [26] of the same compound?
**A.** > 4 µM

**Q.** And the “Ratio IC50” value [27]?
**A.** 2.71

**Q.** What about the EC50 [28] of the same compound?
**A.** > 4 µM

**Q.** What about the EC50 [29] of the same compound?
**A.** > 4 µM

**Q.** And the EC50 [30]?
**A.** > 4 µM

**Q.** And the EC50 [31]?
**A.** > 4 µM

**Q.** And the EC50 [32]?
**A.** > 0.8 µM

**Q.** And the EC50 [33]?
**A.** > 4 µM

**Q.** And the EC50 [34]?
**A.** > 4 µM

**Q.** What about the EC50 [35] of the same compound?
**A.** > 20 µM
